Here are results for four compounds from article PMC4858918, “Improving the N-terminal diversity of sansanmycin through mutasynthesis” (Microbial Cell Factories, 2016).

For orientation: MIC means the lowest concentration found to suppress growth.

What all share (assay): MIC, microplate Alamar blue assay (MABA)
Common to all, as to type: cell-based
In general terms: The colour change of resazurin is a common sign of viable cells or microbes.

Test [1] deals with M. tuberculosis FJ05189 (MDR clinical isolate). Particulars: Mycobacterium tuberculosis, read-out: MIC M. tuberculosis FJ05189.
For test [2], the system named is M. tuberculosis FJ05195 (XDR clinical isolate). Conditions: Mycobacterium tuberculosis, read-out: MIC M. tuberculosis FJ05195.
Test [3] has as its system M. tuberculosis FJ05120 (MDR clinical isolate). Particulars: Mycobacterium tuberculosis, read-out: MIC M. tuberculosis FJ05120.

Structures are written as SMILES. Values after ≈ are worked out from the molar mass of the structure shown. Bounds are passed on as bounds.

As to `CC[C@@H](CO)NCCN[C@@H](CC)CO` [Ethambutol], the results for the MIC in test [1], in test [2] and in test [3] were 2 µg/mL (≈ 9.79 µM), above 128 µg/mL and 0.5 µg/mL (≈ 2.45 µM), respectively.

On to `NNC(=O)c1ccncc1` [Isoniazid], for which the MIC in test [1] is 8 µg/mL (≈ 58.3 µM); in test [2] it was above 128 µg/mL; in test [3], 16 µg/mL (≈ 117 µM).

In the case of `CO[C@H]1/C=C/O[C@@]2(C)Oc3c(C)c(O)c4c(O)c(c(/C=N/N5CCN(C)CC5)c(O)c4c3C2=O)NC(=O)/C(C)=C\C=C\[C@H](C)[C@H](O)[C@@H](C)[C@@H](O)[C@@H](C)[C@H](OC(C)=O)[C@@H]1C` [Rifampicin], the values for the MIC in test [1], in test [2] and in test [3] were 4 µg/mL (≈ 4.86 µM), above 128 µg/mL and above 128 µg/mL, respectively.

Regarding `[H]/N=C(/N)N[C@H]1[C@H](O)[C@@H](O)[C@H](O[C@@H]2O[C@@H](C)[C@](O)(C=O)[C@H]2O[C@@H]2O[C@@H](CO)[C@H](O)[C@@H](O)[C@@H]2NC)[C@@H](N/C(N)=N\[H])[C@@H]1O` [Streptomycin], the MIC in test [1] was below 0.06 µg/mL; in test [2], above 128 µg/mL; in test [3] it was below 0.06 µg/mL.
